Assay results as given in patent US9408853B2, “Iridium/rhodium anti-cancer compounds” (University of Warwick, priority 2010, dated 2016).

Key:
9-ethyladenine (9-EtA) = test: Interactions with nucleobases: 9-EtA adduct formation (1H NMR); type: binding; details: 1 mM, 1 mol equiv 9-EtA, D2O, 310 K
Method: (§1) Interactions with Nucleobases. The reaction of ZL01, ZL03, ZL04, ZL07, ZL25, ZL33, ZL37, ZL38, ZL43 and ZL54 and ZL33A with nucleobases typically involved addition of a solution containing 1-2 mol equiv of nucleobase in D2O, to an equilibrium solution of ZL01, ZL03, ZL04, ZL07, ZL25, ZL33, ZL37, ZL38, ZL43, ZL54 and ZL33A in a solution of 5% MeOD-d4/95% D2O (v/v). ^1H NMR spectra of these solutions were recorded at 310 K after various time intervals.
(§2) Since DNA is a potential target site for transition metal anticancer complexes,^18 nucleobase binding reactions of compounds ZL01, ZL03, ZL04, ZL07, ZL25, ZL33, ZL33A, ZL37, ZL38, ZL43 and ZL54 with nucleobase models 9-ethylguanine (9-EtG) and 9-ethyladenine (9-EtA), were investigated. Solutions of ZL01, ZL03, ZL04, ZL07, ZL25, ZL33, ZL37, ZL38, ZL43 and ZL54 (1 mM) (containing an equilibrium mixture of these complexes and their respective aqua adducts) with 1 mol equivalent of 9-EtG or 9-EtA in D2O were prepared, and ^1H NMR spectra were recorded at different time intervals.

[1] = Kinetics of hydrolysis followed by 1H NMR; type: physicochemical; details: for k (hydrolysis): 0.2 mM, 5% MeOD-d4/95% D2O, pH* 3; for Ea (Arrhenius activation energy of hydrolysis): from Arrhenius plot; for ΔH^‡ (activation enthalpy of hydrolysis) / ΔS^‡ (activation entropy of hydrolysis): from Eyring plot; for rate of hydrolysis (in words): 1H NMR, even at 278K
Method: Kinetics for Hydrolysis. Although complexes ZL01-ZL04, ZL07, ZL38 and ZL43 hydrolyzed too rapidly to monitor by ^1H NMR, The kinetics of hydrolysis for complexes ZL25, ZL33, ZL37 and ZL54 were followed by ^1H NMR at different temperatures. For this, solutions of the complexes with a final concentration of 0.2 mM in 5% MeOD-d4/95% D2O (v/v) were prepared by dissolution of the complexes in MeOD-d4 followed by rapid dilution using D2O with a pH* of about 3 (acidified with HClO4), so that the aqua ligand was not deprotonated. ^1H NMR spectra were taken after various time intervals. The rates of hydrolysis were determined by fitting plots of concentrations (determined from ^1H NMR peak integrals) versus time to a pseudo first-order equation using ORIGIN version 7.0. The Arrhenius activation energy (Ea), activation enthalpies (ΔH^¢), and activation entropy (ΔS^‡) for compounds ZL25, ZL33, ZL37 and ZL54 were determined from the slopes of the Arrhenius and intercepts of Eyring plots.
The rates of hydrolysis of compounds ZL01-ZL04, ZL07, ZL25, ZL33, ZL37, ZL38, ZL43 and ZL54 in a 5% MeOD-d4/95% D2O were monitored by ^1H NMR at different temperature from 278 to 298 K by the observation of new peaks over time due to aqua adduct formation. Five percent MeOD was used to improve solubility, and acidic conditions (D2O, pH* 3) were used to prevent the deprotonation of the aqua complex as a secondary reaction. […] The percentage of aqua peak formation for ZL25, ZL33, ZL37 and ZL54 was plotted against time and was fitted to pseudofirst order kinetics (FIG. 3), and their halflife times were calculated (Table 1). The Arrhenius activation energy (Ea), activation enthalpy (ΔH^¢), and activation entropy (ΔS^‡) of compound ZL25, ZL33, ZL37 and ZL54 are listed in Table 4. The large negative ΔS^‡value for compound ZL54 is notable. The extent of hydrolysis at equilibrium is medium for all compounds, ranged from 30% to 60%.

[2] = test system: ca. 60 cell lines within nine tumour type subpanels; type: cell-based
Source text: Six complexes, [(η^5-C5Me4C6H4C6H5)Ir(bpy)Cl]PF6 (ZL25, bpy=2,2′-bipyridine), [(η^5-C5Me4C6H5)Ir(phen)Cl]PF6 (ZL33, phen=1,10-phenanthroline), [(η^5-C5Me4C6H4C6H5) Ir(pico)Cl] (ZL43, pico=picolinate), [(η^5-C5Me5)Ir(2-phpy)Cl] (ZL47), [(η^5-C5Me4C6H4C6H5)Ir(2-phPY)(D2O)Cl] (ZL49) and [(η^5-C5Me4C6H4C6H5) Ir(phen)Cl]PF6 (ZL54), were selected by Developmental Therapeutics Program of National Cancer Institute (NCI, U.S.A.) for in vitro screening test, in which 5 complexes except ZL43 are selected for further testing. The five complexes were tested on ca. 60 cell lines within nine tumour type subpanels at five concentrations ranging from 0.01 to 100 μM.

9-ethylguanine (9-EtG) = test: Interactions with nucleobases: 9-EtG adduct formation (1H NMR); type: binding; details: 1 mM, 1 mol equiv 9-EtG (ZL33A: 2 mol equiv), D2O, 310 K
Method: as §1, §2
Interactions with Nucleobases. Since DNA is a potential target site for transition metal anticancer complexes,^23 the binding of 9-ethylguanine (9-EtG) to complexes ZL47, ZL49, ZL69, ZL74 and ZL107 was studied.

[3] = test system: human ovarian A2780 cancer cells; test: Cancer cell cytotoxicity, SRB assay; type: cell-based; details: 24 h exposure, 72 h recovery, SRB; read-out: A2780 IC50
Method: Cancer Cell Cytotoxicity. After plating, human ovarian A2780 cancer cells were treated with Ir^III complexes on day 3 at concentrations ranging from 0.5 μM to 100 μM. Solutions of the Ir^III complexes were made up in 0.125% DMSO to assist dissolution. Stock solutions of the IrIII complexes were firstly prepared in DMSO to assist dissolution, and then diluted into 0.9% saline and medium. After plating 5000 A2780 cells per well on day 1, IrIII complexes were added to the cancer cells on day 3 at concentrations ranging from 0.05 μM to 100 μM. Cells were exposed to the complexes for 24 h, washed, supplied with fresh medium, allowed to grow for three doubling times (72 h), and then the protein content measured (proportional to cell survival) using the sulforhodamine B (SRB) assay.^15 […]. The standard errors are based on two independent experiments of three replicates each.

SW480 cancer cell line = test: Cytotoxicity, MTT assay (Brabec group); type: cell-based; details: for IC50: 72 h incubation, MTT; for cytotoxicity towards SW480 (in words): highest test concentration 130 μM
Method: (§3) The cytotoxicity test of ZL07, ZL33, ZL38 and ZL54 against A2780, SW480, A549 and CH1 cell lines was performed by Viktor Brabec group (Institute of Biophysics, Academy of Sciences of the Czech Republic). After plating, the cells were treated with ZL07, ZL33, ZL38 and ZL54. After 72h of incubation 10 μl of MTT (2.5 mg/ml; CALBIOCHEM) was added to each well and incubated for 4 h in culture conditions. At the end of the incubation period the medium was removed and the formazan product was dissolved in 100 μl DMSO. The cell viability was evaluated by measurement of the absorbance at 570 nm, using an Absorbance Reader SUNRICE TECAN SCHOELLER. […] All experiments were made in quadruplicate.

A549 cancer cell line = test: Cytotoxicity, MTT assay (Brabec group); type: cell-based; details: for IC50: 72 h incubation, MTT
Method: as §3

CH1 cancer cell line = test: Cytotoxicity, MTT assay (Brabec group); type: cell-based; details: for IC50: 72 h incubation, MTT; for cytotoxicity towards CH1 (in words): highest test concentration 130 μM
Method: as §3

SMILES	Reaction with 9-EtA, extent of adduct formation (9-ethyladenine (9-EtA); 10 min) [%]	Reaction with 9-EtA, extent of adduct formation (9-ethyladenine (9-EtA); 24 h) [%]	k (hydrolysis) ([1]; 278 K) [min⁻¹]	Ea (Arrhenius activation energy of hydrolysis) [1] [kcal/mol]	ΔH^‡ (activation enthalpy of hydrolysis) [1] [kcal/mol]	ΔS^‡ (activation entropy of hydrolysis) [1] [J K^−1mol^−1]	Reaction with 9-EtG, extent of adduct formation (9-ethylguanine (9-EtG); 10 min) [%]	IC50 [3] [µM]	IC50 (SW480 cancer cell line) [µM]	IC50 (A549 cancer cell line) [µM]	IC50 (CH1 cancer cell line) [µM]	rate of hydrolysis (in words) [1]	Reaction with 9-EtG, extent of adduct formation (9-ethylguanine (9-EtG); 24 h) [%]	further results
Cc1c(C)c(-c2ccc(-c3ccccc3)cc2)[c-](C)c1C.F[P-](F)(F)(F)(F)F.[Cl-].[Ir+3].c1ccc(-c2ccccn2)nc1 (stereo not shown) [ZL25, [(η^5-C5Me4C6H4C6H5)Ir(bipy)Cl]PF6]	0	0	0.0249	14.4	13.9	−66.02	24.2	0.57	–	–	–	–	–	k (hydrolysis) ([1]; 283 K): 0.0405 min⁻¹; k (hydrolysis) ([1]; 293 K): 0.0986 min⁻¹; CC50 [2]: 67.6 µM; Mean graph midpoint (MID) TGI ([2]; ca. 60 cell lines, 0.01 to 100 μM): 19.1 µM; GI50 ([2]; ca. 60 cell lines, 0.01 to 100 μM, read-out: Mean graph midpoint (MID) GI50): 4.1 µM; selectivity among tumour type subpanels (in words) ([2]; mean graphs): selectivity with higher activity not only towards leukemia, CNS cancer, melanoma, and prostate cancer, but also against colon cancer and breast cancer
Cc1c(C)c(-c2ccc(-c3ccccc3)cc2)[c-](C)c1C.F[P-](F)(F)(F)(F)F.[Cl-].[Ir+3].c1cnc2c(c1)ccc1cccnc12 (stereo not shown) [ZL54, [(η^5-C5Me4C6H4C6H5)Ir(phen)Cl]PF6]	0	0	0.0179	10.9	10.4	−121.2	62.2	0.72	1.38 ± 0.2	1.58 ± 0.4	0.69 ± 0.04	–	–	times more active than cisplatin (SW480 cancer cell line; SW480): about 6.7 times; times more active than cisplatin (A549 cancer cell line; A549): ~3.7 times; k (hydrolysis) ([1]; 288 K): 0.0352 min⁻¹; k (hydrolysis) ([1]; 293 K): 0.0516 min⁻¹
Cc1c(C)c(-c2ccccc2)[c-](C)c1C.F[P-](F)(F)(F)(F)F.[Cl-].[Ir+3].c1ccc(-c2ccccn2)nc1 (stereo not shown) [ZL37, [(η^5-C5Me4C6H5)Ir(bipy)Cl]PF6]	0	0	0.0341	19.7	19.1	14.7	18.6	15.9	–	–	–	–	–	k (hydrolysis) ([1]; 283 K): 0.0652 min⁻¹; k (hydrolysis) ([1]; 288 K): 0.1229 min⁻¹
Cc1c(C)c(-c2ccc(-c3ccccc3)cc2)[c-](C)c1C.O=C([O-])c1ccccn1.[Cl-].[Ir+3] (stereo not shown) [ZL43, [(η^5-C5Me4C6H4C6H5)Ir(η^2—C5H4N-2-CO2)Cl]]	71	71	–	–	–	–	100	16.3	–	–	–	too rapid to be observed	100	–
Cc1c(C)c(C)[c-](C)c1C.[Cl-].[Cl-].[Ir+3].c1cnc2c(c1)ccc1cccnc12 [ZL07, [(η^5-C5Me5)Ir(phen)Cl]Cl]	0	0	–	–	–	–	73.1	> 100	80.1 ± 1.5	> 130	50.7 ± 2.8	too rapid to be observed	–	cytotoxicity towards SW480 (in words) (SW480 cancer cell line): moderate activity; cytotoxicity towards CH1 (in words) (CH1 cancer cell line): moderate activity
Cc1c(C)c(-c2ccccc2)[c-](C)c1C.O=C([O-])c1ccccn1.[Cl-].[Ir+3] (stereo not shown) [ZL38, [(η^5-C5Me4C6H5)Ir(η^2-C5H4N-2-CO2)Cl]]	76.0	76.0	–	–	–	–	100	> 100	> 130	> 130	> 130	too rapid to be observed	100	cytotoxicity towards SW480 (in words) (SW480 cancer cell line): nontoxic; cytotoxicity towards A549 (in words) (A549 cancer cell line; highest test concentration 130 μM): nontoxic; cytotoxicity towards CH1 (in words) (CH1 cancer cell line): nontoxic
Cc1c(C)c(C)[c-](C)c1C.F[P-](F)(F)(F)(F)F.NCCN.[Cl-].[Ir+3] [ZL01, [(η^5-C5Me5)IrCl(H2NCH2CH2NH2—N,N)]PF6]	0	0	–	–	–	–	100	> 100	–	–	–	–	100	–
N.N.[Cl][Pt][Cl] [Cisplatin, reference compound]	–	–	–	–	–	–	–	1.2	9.24 ± 1.1	5.9 ± 1.9	0.59 ± 0.1	–	–	–
